From ChEMBL document CHEMBL1909046, “DrugMatrix in vitro pharmacology data”

Legend:
[1] = biological target: T1, Adenosine receptor A1 (Homo sapiens, UniProt P30542); assay type: cell membranes, CHO, Membrane; details: cho;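 also: radioligand binding assay at the adenosine A1 receptor, with DPCPX serving as the labelled ligand; in other assays of this panel Not Active means under 50% inhibition at 10 µM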
T1 sequence (P30542 whole entry): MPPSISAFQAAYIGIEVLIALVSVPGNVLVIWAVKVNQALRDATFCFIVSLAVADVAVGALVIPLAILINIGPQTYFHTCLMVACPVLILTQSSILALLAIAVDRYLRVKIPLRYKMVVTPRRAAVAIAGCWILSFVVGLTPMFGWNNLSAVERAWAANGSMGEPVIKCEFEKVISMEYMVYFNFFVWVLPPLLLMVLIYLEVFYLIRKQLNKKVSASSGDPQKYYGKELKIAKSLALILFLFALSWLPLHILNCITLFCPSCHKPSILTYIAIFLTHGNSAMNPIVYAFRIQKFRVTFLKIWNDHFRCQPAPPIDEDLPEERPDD

[2] = DRUGMATRIX: Glutamate, NMDA, Phencyclidine radioligand binding (ligand: [3H] TCP); assay type: cell membranes, Rattus norvegicus, Wistar, Cerebral cortex, Membrane; details: Not Active = under 50% inhibition at 10 µM
[3] = biological target: Platelet-activating factor receptor (Homo sapiens, UniProt P25105); assay type: tissue-based; also: in other assays of this panel Not Active means under 50% inhibition at 10 µM
[4] = biological target: T2, Cysteinyl leukotriene receptor 1 (Homo sapiens, UniProt Q9Y271); assay type: cell membranes, CHO-K1, Membrane; details: cho-k1; also: in other assays of this panel Not Active means under 50% inhibition at 10 µM
T2 sequence (Q9Y271 whole entry): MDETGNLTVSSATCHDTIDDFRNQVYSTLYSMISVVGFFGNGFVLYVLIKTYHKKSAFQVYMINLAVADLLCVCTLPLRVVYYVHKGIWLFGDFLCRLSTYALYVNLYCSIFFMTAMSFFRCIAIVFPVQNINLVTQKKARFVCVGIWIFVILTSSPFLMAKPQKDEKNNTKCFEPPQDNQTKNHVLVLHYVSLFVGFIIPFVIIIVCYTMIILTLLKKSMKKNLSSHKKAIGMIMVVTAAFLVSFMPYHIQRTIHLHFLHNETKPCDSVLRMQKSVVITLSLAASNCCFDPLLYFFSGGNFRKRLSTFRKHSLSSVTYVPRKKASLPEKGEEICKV

[5] = biological target: T3, Progesterone receptor (Bos taurus, UniProt Q690N0); assay: DRUGMATRIX: Progesterone radioligand binding (ligand: [3H] R-5020); assay type: tissue-based, Uterus; details: Not Active = under 50% inhibition at 10 µM
T3 sequence (Q690N0 whole entry): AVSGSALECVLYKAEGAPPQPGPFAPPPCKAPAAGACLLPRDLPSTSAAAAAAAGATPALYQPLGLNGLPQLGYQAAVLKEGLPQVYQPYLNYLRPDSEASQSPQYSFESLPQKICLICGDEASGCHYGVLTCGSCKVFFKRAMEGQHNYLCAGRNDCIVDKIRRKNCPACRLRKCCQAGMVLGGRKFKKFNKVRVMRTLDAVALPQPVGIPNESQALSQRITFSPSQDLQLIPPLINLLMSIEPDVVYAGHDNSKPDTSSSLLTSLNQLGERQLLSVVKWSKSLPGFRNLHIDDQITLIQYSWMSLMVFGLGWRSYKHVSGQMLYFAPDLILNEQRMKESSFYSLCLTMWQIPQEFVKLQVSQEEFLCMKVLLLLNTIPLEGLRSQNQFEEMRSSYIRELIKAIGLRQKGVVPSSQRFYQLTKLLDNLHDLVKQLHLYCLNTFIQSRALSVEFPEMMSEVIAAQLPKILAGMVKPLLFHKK

[6] = DRUGMATRIX: Tumor Necrosis Factor (TNF), Non-Selective radioligand binding (ligand: [125I] TNF-alpha); assay type: cell membranes, Membrane; details: u-937; Not Active = under 50% inhibition at 10 µM
[7] = biological target: T4, Caspase-1 (Homo sapiens, UniProt P29466); design: species or system Escherichia coli;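 also: Caspase-1 enzyme inhibition assay with a peptide substrate; in other assays of this panel Not Active means under 50% inhibition at 10 µM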
T4 sequence (P29466 whole entry): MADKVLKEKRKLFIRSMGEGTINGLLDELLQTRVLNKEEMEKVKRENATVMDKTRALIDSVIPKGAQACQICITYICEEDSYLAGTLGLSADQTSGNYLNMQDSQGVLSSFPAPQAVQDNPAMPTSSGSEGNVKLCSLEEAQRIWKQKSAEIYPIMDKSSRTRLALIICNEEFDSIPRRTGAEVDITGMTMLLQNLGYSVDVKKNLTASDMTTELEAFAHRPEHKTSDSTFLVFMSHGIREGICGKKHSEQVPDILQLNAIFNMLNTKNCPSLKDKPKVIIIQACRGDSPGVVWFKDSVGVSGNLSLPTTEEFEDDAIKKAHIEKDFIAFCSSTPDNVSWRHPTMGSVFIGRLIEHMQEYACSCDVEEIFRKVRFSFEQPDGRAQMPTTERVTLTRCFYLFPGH

Chain of Platelet-activating factor receptor (P25105 whole entry): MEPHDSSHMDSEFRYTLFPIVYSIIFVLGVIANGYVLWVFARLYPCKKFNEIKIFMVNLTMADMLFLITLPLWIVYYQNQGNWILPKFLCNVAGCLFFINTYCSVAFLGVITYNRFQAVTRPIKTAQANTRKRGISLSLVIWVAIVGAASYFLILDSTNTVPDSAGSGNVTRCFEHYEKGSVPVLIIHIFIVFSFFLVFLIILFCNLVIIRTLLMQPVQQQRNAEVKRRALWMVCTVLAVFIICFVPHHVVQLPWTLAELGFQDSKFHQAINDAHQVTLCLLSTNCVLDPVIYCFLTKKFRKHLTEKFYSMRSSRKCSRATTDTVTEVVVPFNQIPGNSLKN

COc1ccc(Cl)cc1C(=O)NCCc1ccc(S(=O)(=O)NC(=O)NC2CCCCC2)cc1 [GLYBURIDE]
Not Active: IC50 [1] | IC50 [2] | Ki [2] | IC50 [3] | IC50 [4] | IC50 [5] | IC50 [6] | Ki [6] | IC50 [7]

CHROMIC CHLORIDE
Not Active: IC50 [1] | Ki [1] | IC50 [2] | Ki [2] | IC50 [3] | Ki [3] | IC50 [4] | Ki [4] | IC50 [5] | Ki [5] | IC50 [6] | Ki [6] | IC50 [7] | Ki [7]

CCN1C[C@]2(COC)[C@H](O)C[C@H](OC)[C@@]34[C@@H]5C[C@@]6(O)[C@H](OC(=O)c7ccccc7)[C@@H]5[C@@](OC(C)=O)([C@@H]([C@H](OC)[C@H]23)[C@@H]14)[C@@H](O)[C@@H]6OC [ACONITINE]
Not Active: IC50 [1] | IC50 [2] | Ki [2] | IC50 [3] | IC50 [4] | IC50 [5] | IC50 [6] | Ki [6] | IC50 [7]

O=C(O)CCc1nc(-c2ccccc2)c(-c2ccccc2)o1 [OXAPROZIN]
Not Active: IC50 [1] | IC50 [2] | Ki [2] | IC50 [3] | IC50 [4] | IC50 [5] | IC50 [6] | Ki [6] | IC50 [7]

Cc1ccnc2c1NC(=O)c1cccnc1N2C1CC1 [NEVIRAPINE]
Not Active: IC50 [1] | IC50 [2] | Ki [2] | IC50 [3] | IC50 [4] | IC50 [5] | IC50 [6] | Ki [6] | IC50 [7]

Clc1cc(Cl)c(OCC#CI)cc1Cl [HALOPROGIN]
Not Active: IC50 [1] | IC50 [2] | Ki [2] | IC50 [3] | IC50 [4] | IC50 [5] | IC50 [6] | Ki [6] | IC50 [7]

COc1ccccc1OCCNCC(O)COc1cccc2[nH]c3ccccc3c12 (stereo unspecified) [CARVEDILOL]
Not Active: IC50 [1] | IC50 [2] | Ki [2] | IC50 [3] | IC50 [4] | IC50 [5] | IC50 [6] | Ki [6] | IC50 [7]

CCN1CCN(c2cc3c(cc2F)c(=O)c(C(=O)O)cn3C2CC2)CC1 [ENROFLOXACIN]
Not Active: IC50 [1] | IC50 [2] | Ki [2] | IC50 [3] | IC50 [4] | IC50 [5] | IC50 [6] | Ki [6] | IC50 [7]

POVIDONE
Not Active: IC50 [1] | Ki [1] | IC50 [2] | Ki [2] | IC50 [3] | Ki [3] | IC50 [4] | Ki [4] | IC50 [5] | Ki [5] | IC50 [6] | Ki [6] | IC50 [7] | Ki [7]

C=C(Cl)Cl [1,1-DICHLOROETHENE]
Not Active: IC50 [1] | IC50 [2] | Ki [2] | IC50 [3] | IC50 [4] | IC50 [5] | IC50 [6] | Ki [6] | IC50 [7]

CC(=O)[C@]1(O)Cc2c(O)c3c(c(O)c2[C@@H](O[C@H]2C[C@H](N)[C@H](O)[C@H](C)O2)C1)C(=O)c1ccccc1C3=O [IDARUBICIN]
Not Active: IC50 [1] | IC50 [2] | Ki [2] | IC50 [3] | IC50 [4] | IC50 [5] | IC50 [6] | Ki [6] | IC50 [7]

NC(=O)CN1CCCC1=O
Not Active: IC50 [1] | IC50 [2] | Ki [2] | IC50 [3] | IC50 [4] | IC50 [5] | IC50 [6] | Ki [6] | IC50 [7]

CO[C@H]1O[C@@H]2O[C@@]3(C)CC[C@H]4[C@H](C)CC[C@@H]([C@H]1C)[C@@]24OO3
Not Active: IC50 [1] | IC50 [2] | Ki [2] | IC50 [3] | IC50 [4] | IC50 [5] | IC50 [6] | Ki [6] | IC50 [7]

CC12CCC(CC1)C(C)(C)O2 [EUCALYPTOL]
Not Active: IC50 [1] | IC50 [2] | Ki [2] | IC50 [3] | IC50 [4] | IC50 [5] | IC50 [6] | Ki [6] | IC50 [7]

C[N+](C)(C)CCOC(N)=O.[Cl-] [CARBACHOL]
Not Active: IC50 [1] | IC50 [2] | Ki [2] | IC50 [3] | IC50 [4] | IC50 [5] | IC50 [6] | Ki [6] | IC50 [7]

NS(=O)(=O)c1cc(C(=O)O)c(NCc2ccco2)cc1Cl [FUROSEMIDE]
Not Active: IC50 [1] | IC50 [2] | Ki [2] | IC50 [3] | IC50 [4] | IC50 [5] | IC50 [6] | Ki [6] | IC50 [7]

CC(C)NCC(O)COc1ccc(CC(N)=O)cc1 (stereo unspecified) [ATENOLOL]
Not Active: IC50 [1] | IC50 [2] | Ki [2] | IC50 [3] | IC50 [4] | IC50 [5] | IC50 [6] | Ki [6] | IC50 [7]

Oc1ncnc2[nH]ncc12 [ALLOPURINOL]
Not Active: IC50 [1] | IC50 [2] | Ki [2] | IC50 [3] | IC50 [4] | IC50 [5] | IC50 [6] | Ki [6] | IC50 [7]

NCC(CC(=O)O)c1ccc(Cl)cc1 (stereo unspecified) [BACLOFEN]
Not Active: IC50 [1] | IC50 [2] | Ki [2] | IC50 [3] | IC50 [4] | IC50 [5] | IC50 [6] | Ki [6] | IC50 [7]

O=C1CN(/N=C/c2ccc([N+](=O)[O-])o2)C(=O)N1 [NITROFURANTOIN]
Not Active: IC50 [1] | IC50 [2] | Ki [2] | IC50 [3] | IC50 [4] | IC50 [5] | IC50 [6] | Ki [6] | IC50 [7]

CC12CCC(CC1=O)C2(C)C (stereo unspecified) [CAMPHOR]
Not Active: IC50 [1] | IC50 [2] | Ki [2] | IC50 [3] | IC50 [4] | IC50 [5] | IC50 [6] | Ki [6] | IC50 [7]

Cc1c(N)nc([C@H](CC(N)=O)NC[C@H](N)C(N)=O)nc1C(=O)N[C@H](C(=O)N[C@H](C)[C@@H](O)[C@H](C)C(=O)N[C@H](C(=O)NCCc1nc(-c2nc(C(=O)NCCC[S+](C)C)cs2)cs1)[C@@H](C)O)[C@@H](O[C@@H]1O[C@@H](CO)[C@@H](O)[C@H](O)[C@@H]1O[C@H]1O[C@H](CO)[C@@H](O)[C@H](OC(N)=O)[C@@H]1O)c1c[nH]cn1.[Br-] [BLEOMYCIN A2]
Not Active: IC50 [1] | IC50 [2] | Ki [2] | IC50 [3] | IC50 [4] | IC50 [5] | IC50 [6] | Ki [6] | IC50 [7]

Oc1ccccc1 [PHENOL]
Not Active: IC50 [1] | IC50 [2] | Ki [2] | IC50 [3] | IC50 [4] | IC50 [6] | Ki [6] | IC50 [7]
